# Source: patent US8779158B2, “Trisubstituted pyrazoles as acetylcholine receptor modulators” (Janssen Pharmaceutica NV, priority 2008, dated 2014)
# Columns and labels:
# [1] = molecular target: T1, hα7-wt nAChR (Homo sapiens, UniProt P36544); experiment: Ca2+ flux imaging (FDSS) (Protocol B), potentiation of the choline response; type: cell-based; settings: Ca2+ assay as described in D.1; for EC50: "<5" = activity did not reach a top plateau at maximal concentration; for Emax: read-out: % Efficacy
# T1 construct: expressed in transfected cells
# T1 sequence (P36544 23-502): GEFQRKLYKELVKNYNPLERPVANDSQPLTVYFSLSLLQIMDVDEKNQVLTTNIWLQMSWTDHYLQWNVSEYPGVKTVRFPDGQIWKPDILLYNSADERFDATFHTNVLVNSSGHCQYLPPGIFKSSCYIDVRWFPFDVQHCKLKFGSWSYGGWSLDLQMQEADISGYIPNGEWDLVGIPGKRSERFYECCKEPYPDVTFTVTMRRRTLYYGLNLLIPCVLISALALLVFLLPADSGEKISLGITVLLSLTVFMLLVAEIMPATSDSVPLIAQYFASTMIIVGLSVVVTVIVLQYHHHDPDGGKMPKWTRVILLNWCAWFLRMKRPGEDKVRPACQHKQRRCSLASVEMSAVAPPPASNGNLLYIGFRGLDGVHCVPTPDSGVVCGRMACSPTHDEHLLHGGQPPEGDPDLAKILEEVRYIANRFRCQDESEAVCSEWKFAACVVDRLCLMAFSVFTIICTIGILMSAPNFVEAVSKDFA
# Procedure: Ca^2+ Flux Imaging (FDSS) (Protocol B)
# • Hanks buffered saline solution (HBSS, Invitrogen, Belgium), supplemented with 10 mM HEPES (Invitrogen, Belgium), CaCl2 to a final concentration of 5 mM, 0.1% Bovine serum albumin (Sigma-Aldrich NV, Belgium). b) Calcium-Sensitive Dye—Fluo-4AM • Fluo-4AM (Molecular Probes, USA) was dissolved in DMSO containing 10% Pluronic acid (Molecular Probes, USA) to give a stock solution which was diluted in assay buffer supplemented with 5 mM probenicid (Sigma, Aldrich NV, Belgium) to give a final concentration of 2 μM. c) 384-Well Plates • Black 384 well plate black/clear plates, PDL pre-coated (Corning, Incorporated, USA) d) Calcium Flux Measurement • A Functional drug screening system (FDSS, Hamamatsu) was used to measure intracellular free-calcium flux signals. Method
# Monolayers of hα7-wt nAChR-expressing cells were grown in multi-well plates, in particular black-sided, transparent bottomed 384 well plates coated with poly-D-lysine for 24 hours prior to loading with a fluorescent calcium indicator, in a particular embodiment loading with fluo-4AM for up to 120 minutes.
# PAM activity was detected in real time by applying the compounds to be tested to the loaded cells along with a α7 nicotinic receptor agonist during constant monitoring of cellular fluorescence in a FDSS. Compounds giving peak fluorescent responses greater than the response due to agonist alone, were considered to be α7 nAChR PAM's. In a particular embodiment, the α7 nicotinic receptor agonist was choline, a more particular embodiment choline applied at a sub-maximal concentration of 100 μM. In a further setting of the present invention the compounds to be tested were applied prior to the α7 nicotinic receptor agonist, in a particular embodiment up to 10 minutes prior to the agonist.
# A control response to choline was calculated on each plate from the difference in peak in fluorescence in wells receiving either choline or assay buffer alone. Compounds of the present invention were tested at a concentration range from 0.01 μM to 30 μM. Compounds were considered to have an interesting activity when they potentiated the choline signal at least with 200% when tested at a concentration of 30 μM (the efficacy of 100 μM choline was defined as 100% in the absence of a PAM). An EC50 (or pEC50) was determined as a concentration relating to half the maximal effect, when a clear sigmoidal curve with top plateau was obtained.
# [2] = molecular target: T2, hα7-wt nAChR-expressing GH4C1 cells (Homo sapiens, UniProt P36544); experiment: Patch-clamp current recording (whole-cell voltage clamp), potentiation of the choline current and PAM type; type: cell-based; parameters: key: Type 0 compounds minimally enhance the effect size of the current elicited by 1 mM choline.; Type 1 compounds enhance the effect size of the current elicited by 1 mM choline but minimally alter the kinetics of the receptor.; Type 2 compounds enhance the effect size of the current elicited by 1 mM choline while reducing the rate and/or the extent of desensitization.; Type 3 compounds enhance the effect size of the current elicited by 1 mM choline. When tested at higher concentrations up to 10 μM they completely inhibit desensitization, in particular a 1 mM choline application of 250 milliseconds.; Type 4 compounds allow for an initial desensitization of the receptor followed by a re-opening of the receptor during agonist application; settings: 1 mM choline
# T2 construct: expressed in transfected cells
# T2 sequence (P36544 23-502): as above
# Procedure: The compounds of the present invention are classified as type 1-4, based on qualitative kinetic properties, as determined by whole-cell voltage-clamp recordings. This classification is based on the effect of an α7 PAM compound, as described hereinbefore, on the signal elicited by an agonist application. In particular, said agonist is choline at a concentration of 1 mM. In a preferred experimental setting, said α7 PAM compound and choline are simultaneously applied to the cell, as described hereinafter. Desensitization is defined as the closure of the receptor upon activation during the application of the agonist in whole-cell voltage-clamp electrophysiology measurements seen as the reduction of the […] current after initial activation by the agonist.
# The definition of the PAM types 1-4 is described hereinafter: • Type 0 compounds minimally enhance the effect size of the current elicited by 1 mM choline. • Type 1 compounds enhance the effect size of the current elicited by 1 mM choline but minimally alter the kinetics of the receptor. In particular, the rate and the extent of desensitization, elicited by the agonist, is not affected. The compound-modulated response to 1 mM choline, therefore, is a close to linear scaling of the 1 mM choline response in absence of the α7 PAM compound. • Type 2 compounds enhance the effect size of the current elicited by 1 mM choline while reducing the rate and/or the extent of desensitization. • Type 3 compounds enhance the effect size of the current elicited by 1 mM choline. […] At low-potency concentrations of the α7 PAM compound, the agonist-induced activation, which is followed by desensitization, can still be separated from the compound-induced re-opening as an initial inward current-maximum. At higher potency concentrations of the α7 PAM compound, the re-opening occurs faster than the closure due to desensitization so that the initial current-maximum disappears.
# A compound was considered to have interesting PAM-like activity when the potentiation of the peak current was at least 200% compared to the control choline response (=100%). Such compounds are classified as belonging to a particular PAM type in the Experimental Part. Compounds not meeting the condition are not classified as belonging to a particular PAM-type.
# The compounds also have a potentiating effect on the response to choline when measured by whole-cell patch clamp electrophysiology in GH4C1 cells stably over-expressing the human wild-type α7 receptor.
# Patch-Clamp Current Recording
# Patch-clamp recording from mammalian cells has provided a powerful means of assessing the function of membrane-bound proteins thought to be subunits of ligand-gated ion channels. Activation of such proteins by endogenous or exogenous ligands cause opening of a pore associated with the receptor through which ions flow down their electrochemical gradient. In the case of the hα7-wt nAChR-expressing GH4C1 recombinant cell line the preferential permeability to calcium of this receptor means that calcium flows into the cell upon activation by ACh, choline and other nicotinic ligands giving rise to a calcium current. Since this receptor rapidly desensitizes in the presence of agonist it is important an application system is used which is capable of very rapid switching of solutions (<100 ms) to prevent partial or full desensitisation of receptor responses coincident with the time of agonist application. Consequently, a second convenient technique to assess the enhancement of nicotinic efficacy is patch-clamp recording from hα7-wt nAChR-expressing GH4C1 cells coupled with a rapid-application system.
# • The external recording solution consisted of 152 mM NaCl, 5 mM KCl, 1 mM MgCl2, 1 mM Calcium, 10 mM HEPES; pH 7.3. […]
Compound,EC50 [1],Emax [1],PAM type [2]
CC[C@H](O)Cn1nc(Nc2cc(Cl)cc(OC)c2)cc1-c1ccnc(C)c1 [compound 122],1020 nM,,1
CCNC(=O)Cn1nc(Nc2cc(OC)cc(C(F)(F)F)c2)cc1-c1ccnc(C)c1C [compound 51],3310 nM,,2
CNC(=O)Cn1nc(Nc2cccc(Cl)c2F)cc1-c1ccnc(COC)c1 [compound 106],1950 nM,,2
CCNc1cc(-c2cc(Nc3ccc(F)c(F)c3)nn2C[C@H](C)O)ccn1 [compound 62],1320 nM,,1
CC[C@H](O)Cn1nc(Nc2cc(OC)cc(C(F)(F)F)c2)cc1-c1ccnc(C)c1C [compound 53],1070 nM,482%,0
CC[C@H](O)Cn1nc(Nc2cc(OC)cc(C(F)(F)F)c2)cc1-c1ccnc(C)c1 [compound 183],794 nM,,0
CN(C)C(=O)CCn1nc(Nc2ccc(F)c(F)c2)cc1-c1cccnc1 [compound 19],4270 nM,,2
"CCNc1cc(-c2cc(Nc3cc(F)cc(F)c3)nn2C[C@@H](O)CC)ccn1 [compound 8, (alphaS)-3-[(3,5-difluorophenyl)amino]-alpha-ethyl-5-[2-(ethylamino)-4-pyridinyl]-1H-pyrazole-1-ethanol]",955 nM,1000%,1
C[C@H](O)Cn1nc(Nc2cc(F)c(F)c(F)c2)cc1-c1ccc2c(c1)OCCO2 [compound 85],1100 nM,400%,0
CNC(=O)Cn1nc(Nc2ccc(F)c(F)c2F)cc1-c1ccnc(C)c1 [compound 107],1860 nM,907%,2
CNC(=O)Cn1nc(Nc2cc(F)c(F)c(F)c2)cc1-c1cc(C)nc(C)c1 [compound 127],1020 nM,616%,
CCNC(=O)Cn1nc(Nc2cccc(OC(F)(F)F)c2)cc1-c1cccnc1 [compound 17],> 10000 nM,,
CNC(=O)Cn1nc(Nc2cccc(OC(F)(F)F)c2)cc1-c1cccnc1 [compound 14],5130 nM,,
CCNC(=O)Cn1nc(Nc2ccc(F)c(F)c2)cc1-c1ccncc1 [compound 20],> 10000 nM,,
Cc1ccnc(-c2cc(Nc3cc(F)cc(F)c3)nn2CCC(=O)N(C)C)c1 [compound 26],2750 nM,800%,
COc1cc(Nc2cc(-c3ccnc(C)c3C)n(CCC(=O)N(C)C)n2)cc(C(F)(F)F)c1 [compound 52],912 nM,,

# Now from value to molecule, other results behind:
EC50 [1],Emax [1],Compound,PAM type [2]
245 nM,,"CCOC(=O)Cn1nc(Nc2ccc(F)c(F)c2)cc1-c1ccc2c(c1)OCCO2 [compound 10, 3-[(3,4-difluorophenyl)amino]-5-(2,3-dihydro-1,4-benzodioxin-6-yl)-1H-pyrazole-1-acetic acid ethyl ester]",2
794 nM,,COc1cc(Cl)cc(Nc2cc(-c3ccnc(C)c3)n(CC(=O)NCC3CC3)n2)c1 [compound 132],2
525 nM,901%,CCNC(=O)Cn1nc(Nc2cccc(Cl)c2F)cc1-c1cc(C)nc(C)c1 [compound 154],2
77.6 nM,,COc1ccc(-c2cc(Nc3ccc(F)c(F)c3)nn2CCC(=O)N(C)C)cc1 [compound 102],4
417 nM,,CNC(=O)Cn1nc(Nc2cccc(OC(F)(F)F)c2)cc1-c1ccc2c(c1)OCCO2 [compound 77],4
324 nM,,Cc1cc(-c2cc(Nc3cccc(Cl)c3)nn2CC(=O)NCC2CC2)ccn1 [compound 163],2
339 nM,,Cc1cc(-c2cc(Nc3cccc(Cl)c3)nn2CC(=O)NCC2CC2)cc(C)n1 [compound 100],2
186 nM,783%,Cc1cc(-c2cc(Nc3cccc(Cl)c3F)nn2CC(=O)NCC2CC2)ccn1 [compound 170],2
295 nM,856%,Cc1cc(-c2cc(Nc3ccc(F)c(F)c3F)nn2CCC(=O)N(C)C)ccn1 [compound 166],2
759 nM,,CC[C@H](O)Cn1nc(Nc2cccc(Cl)c2)cc1-c1cc(C)nc(C)c1 [compound 58],1
135 nM,401%,Cc1cc(-c2cc(Nc3cccc(Cl)c3F)nn2CCC(=O)N(C)C)cc(C)n1 [compound 173],1
562 nM,519%,CNC(=O)Cn1nc(Nc2cccc(Cl)c2F)cc1-c1cc(C)nc(C)c1 [compound 141],
186 nM,393%,Cc1cc(-c2cc(Nc3cc(F)c(F)c(F)c3)nn2CC(=O)NC2CC2)cc(C)n1 [compound 172],
437 nM,444%,Cc1cc(-c2cc(Nc3cccc(C(F)(F)F)c3)nn2CC(=O)NC2CCC2)cc(C)n1 [compound 144],
437 nM,750%,COc1cc(Nc2cc(-c3cc(C)nc(C)c3)n(CC(=O)NC3CCC3)n2)cc(C(F)(F)F)c1 [compound 162],
151 nM,,CC[C@H](O)Cn1nc(Nc2cc(OC)cc(C(F)(F)F)c2)cc1-c1cc(C)nc(C)c1 [compound 101],
776 nM,,CCNC(=O)Cn1nc(Nc2cc(F)cc(Cl)c2)cc1-c1ccnc(C)c1 [compound 39],
309 nM,,CN(C)C(=O)CCn1nc(Nc2ccc3c(c2)OC(F)(F)O3)cc1-c1ccncc1 [compound 88],
219 nM,,CCNC(=O)Cn1nc(Nc2cccc(C(F)(F)F)c2)cc1-c1ccc2c(c1)OCCO2 [compound 79],
126 nM,462%,Cc1cc(-c2cc(Nc3cccc(Cl)c3F)nn2CC(=O)NC2CCC2)cc(C)n1 [compound 175],
148 nM,507%,Cc1cc(-c2cc(Nc3ccc(F)c(F)c3)nn2CC(=O)NC2CCC2)cc(C)n1 [compound 171],
